Columns and labels:
Format in all cases: cell-based
[1] = system: C/EBPβ; experiment: Western blot, protein expression of C/EBPβ (isoforms LAP*, LAP, LIP) in 3T3-L1 cells; settings: for protein expression of C/EBPβ (isoforms LAP*, LAP and LIP): 10 µg/ml each
Description: (§1) 3T3-L1 preadipocytes were cultured in DMEM (D5796, high glucose) supplemented with 10% FBS, penicillin, and streptomycin at 37 °C in 5% CO2 atmosphere and 80% humidity. For long-term experiments, cells were seeded onto 6-well plates and grown to confluence. Adipogenesis was induced 48 h post confluence (day 0) by addition of culture medium containing […], 0.4 pg/ml dexamethasone, and 500 µM 3-isobutyl-1-methylxan-thine (IBMX). Experiments were performed in the absence and presence of increasing concentrations of ethanolic citrus extracts (total peel, flavedo and albedo layers) or commercially available citropten, bergamottin and 5-geranyloxy-7-methox-ycoumarin. Ethanol (0.1%) served as vehicle. At days 3 and 5, medium was replaced by fresh medium supplemented with 10 pg/ml and 0.2 ug/ml insulin, respectively, with and without compounds. At day 7, adipogenesis was terminated by harvest of cells. In a short-term approach, differentiation was performed for 24 h. Cells were harvested by treatment with RIPA buffer (#R0278, Sigma) containing EDTA (2 mM) and cOmplete Protease Inhibitor Cocktail (total volume of 150 µl per well) and scraped off mechanically. Cell suspensions were transferred to Eppendorf vials, homogenized by repeated sonication, and kept on ice for 10 min. Aliquots were stored at 4 °C for measurement of triglycerides (TGs) and total cellular protein content. For Western blot experiments homogenates were stored at -80 °C.
Lysates were denaturated by boiling with 5-fold Laemmli buffer for 10 min at 95 °C. Samples containing 15 µg of protein were separated by SDS-PAGE on 8-12% gels for 45 min at 180 V. Thereafter, proteins were transferred onto nitrocellulose membranes for 90 min (240 mA). After blocking with Tris-buffered saline containing 0.1% (v/v) Tween-20 and 5% non-fat dry milk for 1 h (ambient temperature) membranes were incubated overnight at 4 °C with primary antibodies. After incubation of membranes with respective horseradish peroxidase-conjugated IgGs immunoreactive bands were visualized using Western Bright™ ECL or Western Bright™ Quantum substrates (Biozym, Austria) and chemiluminescence was quantified with the Fusion SL Imaging System (VWR International GmbH).

[2] = system: C/EBPβ; experiment: Dual luciferase reporter assay, transcriptional activity of C/EBPβ in HEK293 cells; settings: 24 h; for transcriptional activity of C/EBPβ: 10 µg/ml
Description: (§2) At 80-90% confluence, HEK293 cells were co-transfected with C/EBPβ or C/EBPδ DNA (1 µg each) and Cignal Reporter (0,5 µg) in serum- and antibiotic-free medium using TurboFect™ Transfection Reagent (ThermoFisher Scientific). Cells were incubated for 24 h in the absence and presence of citropten, bergamottin or 5-geranyloxy-7-methoxycoumarin. Thereafter, cells were harvested and lysed according to the manufacturer's instructions. Activities of firefly luciferase and Renilla luciferase were sequentially measured as biolumi-nescence using the GloMax Discover System GM3000 (Promega) as described. Luminescence of each sample was normalized to Renilla luciferase activity.

[3] = system: acetyl-CoA carboxylase (ACC); experiment: Western blot, expression and phosphorylation of ACC, short-term experiments in 3T3-L1 cells
Description: as §1, with “Cells were harvested by treatment with RIPA buffer (#R0278, Sigma) containing EDTA (2 mM) and cOmplete Protease Inhibitor Cocktail (total volume of 150 µl per well) and scraped off mechanically. Cell suspensions were transferred to Eppendorf vials, homogenized by repeated sonication, and kept on ice for 10 min. Aliquots were stored at 4 °C for measurement of triglycerides (TGs) and total cellular protein content. For Western blot experiments homogenates were stored at -80 °C.” left out
(§3) Lysates were denaturated by boiling with 5-fold Laemmli buffer for 10 min at 95 °C. […] After incubation of membranes with respective horseradish peroxidase-conjugated IgGs immunoreactive bands were visualized using Western Bright™ ECL or Western Bright™ Quantum substrates (Biozym, Austria) and chemiluminescence was quantified with the Fusion SL Imaging System (VWR International GmbH).

[4] = system: C/EBPδ; experiment: Western blot, protein expression of C/EBPδ in 3T3-L1 cells; settings: 10 pg/ml each
Description: as §1, with “Cells were harvested by treatment with RIPA buffer (#R0278, Sigma) containing EDTA (2 mM) and cOmplete Protease Inhibitor Cocktail (total volume of 150 µl per well) and scraped off mechanically. Cell suspensions were transferred to Eppendorf vials, homogenized by repeated sonication, and kept on ice for 10 min. Aliquots were stored at 4 °C for measurement of triglycerides (TGs) and total cellular protein content. For Western blot experiments homogenates were stored at -80 °C.” left out
as §3

[5] = system: C/EBPα; experiment: Western blot, protein expression of C/EBPα during adipogenesis of 3T3-L1 cells; settings: adipogenesis terminated at day 7, increasing concentrations
Description: as §1, with “Cells were harvested by treatment with RIPA buffer (#R0278, Sigma) containing EDTA (2 mM) and cOmplete Protease Inhibitor Cocktail (total volume of 150 µl per well) and scraped off mechanically. Cell suspensions were transferred to Eppendorf vials, homogenized by repeated sonication, and kept on ice for 10 min. Aliquots were stored at 4 °C for measurement of triglycerides (TGs) and total cellular protein content. For Western blot experiments homogenates were stored at -80 °C.” left out
as §3

[6] = system: AMPK; experiment: Western blot, expression and phosphorylation of AMPK, short-term experiments in 3T3-L1 cells; settings: 10 µg/ml, short-term (24 h), compared to controls
Description: as §1, with “Cells were harvested by treatment with RIPA buffer (#R0278, Sigma) containing EDTA (2 mM) and cOmplete Protease Inhibitor Cocktail (total volume of 150 µl per well) and scraped off mechanically. Cell suspensions were transferred to Eppendorf vials, homogenized by repeated sonication, and kept on ice for 10 min. Aliquots were stored at 4 °C for measurement of triglycerides (TGs) and total cellular protein content. For Western blot experiments homogenates were stored at -80 °C.” left out
as §3

[7] = system: C/EBPδ; experiment: Dual luciferase reporter assay, transcriptional activity of C/EBPδ in HEK293 cells; settings: 10 µg/ml, 24 h
Description: as §2, with “Transcriptional activities of C/EBPβ and C/EBP6 were measured using the C/EBP Cignal™ Reporter Assay (CCS-001L; dual luc) from Qiagen (Germany) and the Dual-Luciferase® Reporter Assay System (E1910; Promega Corporation, Germany) as recently described (Mussbacher et al., 2019, Sci Rep, 9(1), 15403. https://doi.org/10.1038/s41598-019-51579-x). pcDNA-mC/EBPβ (Addgene plasmid # 49198) and pcDNA-mC/EBP6 (Addgene plasmid #12559) were gifts from Jed Friedman and Peter Johnson, respectively. At” for “At”

[8] = system: PPARγ; experiment: Western blot, protein expression of PPARγ during adipogenesis of 3T3-L1 cells; settings: adipogenesis terminated at day 7, increasing concentrations
Description: as §1, with “Cells were harvested by treatment with RIPA buffer (#R0278, Sigma) containing EDTA (2 mM) and cOmplete Protease Inhibitor Cocktail (total volume of 150 µl per well) and scraped off mechanically. Cell suspensions were transferred to Eppendorf vials, homogenized by repeated sonication, and kept on ice for 10 min. Aliquots were stored at 4 °C for measurement of triglycerides (TGs) and total cellular protein content. For Western blot experiments homogenates were stored at -80 °C.” left out
as §3

[9] = system: mature 3T3-L1 cells; experiment: Forskolin-stimulated lipolysis, release of free fatty acids into the medium; settings: for forskolin-induced lipolysis: 3 h
Description: (§4) 3T3-L1 preadipocytes were seeded onto 6-well plates and cultured in DMEM (D5796; high glucose) supplemented with 10% fetal bovine serum, penicillin, and streptomycin at 37 °C in 5% CO2 atmosphere and 80% humidity. Differentiation of cells were performed for 10 days as described in 2.4. Mature adipocytes were washed twice in low glucose containing DMEM (D4947). Lipolysis was induced by addition of the adenylyl cyclase activator forskolin (10 µM) and cells were incubated in medium containing 2% fatty acid-free BSA for up to 6 h in the absence and presence of coumarins. In basal lipolysis experiments, forskolin was excluded. Aliquots of the medium were collected and release of free fatty acids (FFAs) was measured using the NEFA Assay Kit from FUJIFILM Wako Chemicals Europe GmbH (Neuss, Germany) (ASC-ACOD method) according to the manufacturer's instructions.

[10] = system: mature 3T3-L1 cells; experiment: Basal lipolysis, release of free fatty acids into the medium (forskolin excluded); parameters: dose or concentration left out as unconfirmed; settings: without forskolin, 3 h
Description: as §4

SMILES: COc1cc(OC/C=C(\C)CCC=C(C)C)c2ccc(=O)oc2c1 [5-geranyloxy-7-methoxycoumarin, 5-[(2E)-3,7-dimethylocta-2,6-dienoxy]-7-methoxychromen-2-one]
- protein expression of C/EBPβ (isoforms LAP*, LAP and LIP) [1]: not affected
- transcriptional activity of C/EBPβ [2]: not affected
- fold induction at 10 µg/mL ([3]; Mus musculus, 3T3-L1, short-term (24 h), compared to controls, read-out: phosphorylation of acetyl-CoA carboxylase (ACC) at Ser79): ~3
- protein expression of C/EBP6 [4]: not affected
- protein expression of C/EBPα [5]: concentration-dependently suppressed
- phosphorylation of AMPK at Thr172 [6]: more than doubled
- transcriptional activity of C/EBP6 (C/EBPδ-dependent transcriptional activity) [7]: tendency to decrease
- transcriptional activity of C/EBP6 (C/EBPδ-dependent transcriptional activity) ([7]; listed as 5-geranyloxy-7-methoxy-coumarin): not affected
- protein expression of PPARγ [8]: concentration-dependently suppressed

SMILES: CC(C)=CCC/C(C)=C/COc1c2ccoc2cc2oc(=O)ccc12 [bergamottin, 4-[(2E)-3,7-dimethylocta-2,6-dienoxy]furo[3,2-g]chromen-7-one]
- protein expression of C/EBPβ (isoforms LAP*, LAP and LIP) [1]: not affected
- transcriptional activity of C/EBPβ [2]: not affected
- phosphorylation of ACC (Ser79) ([3]; 10 µg/ml, short-term experiments, p<0.05 vs vehicle-treated cells): significantly increased
- protein expression of C/EBP6 [4]: not affected
- forskolin-induced lipolysis ([9]; 30 µM (10 µg/ml)): did not significantly enhance
- protein expression of C/EBPα [5]: concentration-dependently suppressed
- phosphorylation of AMPK at Thr172 [6]: significantly increased
- transcriptional activity of C/EBP6 (C/EBPδ-dependent transcriptional activity) [7]: not affected
- protein expression of PPARγ [8]: concentration-dependently suppressed

SMILES: COc1cc2oc(=O)ccc2cc1O [isoscopoletin, 6-hydroxy-7-methoxy-2H-chromen-2-one]
- forskolin-induced lipolysis ([9]; 56 µM (10 µg/ml)): did not significantly enhance

SMILES: COc1ccc2ccc(=O)oc2c1 [herniarin, 7-methoxy-2H-chromen-2-one]
- forskolin-induced lipolysis ([9]; 141 µM (25 µg/ml)): did not significantly enhance

SMILES: COc1cc(OC)c2ccc(=O)oc2c1 [citropten, 5,7-dimethoxy-2H-chromen-2-one]
- expression of LIP ([1]; 25 µg/ml, p<0.05 vs vehicle-treated cells): significantly upregulated
- protein expression of C/EBPβ ([1]; citropten 25 µg/ml): increased
- activity of C/EBPβ ([2]; citropten 25 µg/ml): increased
- forskolin-induced lipolysis ([9]; 10 pg/ml (≈ 48 µM)): significant effect
- activity at 120 µM ([9]; Mus musculus, 3T3-L1, 25 µg/ml (≈ 120 µM), 3-4 h after induction of lipolysis, read-out: effect on forskolin-stimulated lipolysis (release of FFAs), maximal): 185 to 190%
- forskolin-stimulated lipolysis ([9]; forskolin 10 µM, time- and concentration-dependent manner): enhanced
- release of FFAs ([9]; forskolin-stimulated, 25 µg/ml (≈ 120 µM), within 0.5 and 6 h): significantly increased
- basal release of FFAs [10]: increased

SMILES: O=c1ccc2cc(O)c(O)cc2o1 [esculetin, 6,7-dihydroxy-2H-chromen-2-one]
- forskolin-induced lipolysis ([9]; 56 µM (10 µg/ml)): did not significantly enhance
